What was measured:
Type in all cases: cell-based
Conditions in all cases: ACV 100 μmol/l, MOI 0.01, titer 24 hpi
[1] = system: HSV-1 strain Kupka; assay: In vitro antiviral activity, treatment of Vero cells, plaque assay
Procedure: (§1) • A. Vero cells were seeded in 24-well plates and treated with dilutions of the ECAS 2 Dil.1:1 and Dil.1:2, either: • I. 24 hours before the infection; • II. 2 hours before the infection; • III. during the infection; • IV. 2 hours post infection; or • V. 6 hours post infection.
(§2) The cells were infected with the HSV-1 strains Kupka and ANGpath at a multiplicity of infection (MOI) of 0.01. The cells were collected 24 hours post infection (hpi) and the virus titer was determined by plaque assay. Briefly, the samples were serially diluted and plated onto one-day Vero cell-monolayers in 24- or 6-well tissue plates in duplicates. Afterwards, the cells were overlaid with 1% methylcellulose in normal growth media. 5 days post infection, the cells were fixed and stained with 2% crystal violet in 20% ethanol, and the individual plaques were counted to determine the virus titer in each sample. Samples without treatment (Mock, negative control) and samples treated with ACV (Acyclovir, 100 μmol/l, reference control) were handled in the same manner. The test was performed in two independent experiments, where each of the samples was tested in parallel wells. • B. The HSV-1 strains Kupka and ANGpath, were incubated at a MOI of 0.01 with dilutions of the ECAS 2 either Dil.1:1 or Dil.1:2, in a final volume of 100 μl for either: • I. 12 hours; • II. 8 hours; • III. 6 hours; or • IV. 2 hours.

[2] = system: HSV-1 strain ANGpath; assay: as above
Procedure: as §1, §2

[3] = system: HSV-1 strain Kupka; assay: In vitro antiviral activity, pre-incubation of virus before infection of Vero cells, plaque assay
Procedure: as §2
(§3) Then cells, which had been seeded in 24-well plates 24 hours before the infection, were infected with the above mentioned pre-incubated viruses. 24 hpi the cells were collected and the virus titer was determined by a plaque assay, as described above. Samples without treatment (Mock, negative control) and samples treated with Acyclovir (100 μmol/l as reference control) were handled in the same manner. The test was performed in two independent experiments, where each of the samples was tested in parallel wells.

[4] = system: HSV-1 strain ANGpath; assay: as above
Procedure: as §2, §3

[5] = cells treated 2 h before infection
[6] = cells treated 24 h before infection
[7] = virus incubated 2 h before infection
[8] = virus incubated 6 h before infection
[9] = virus incubated 8 h before infection
[10] = virus incubated 12 h before infection

Nc1nc2c(ncn2COCCO)c(=O)[nH]1 [ACV, Acyclovir]
Reduction in viral titer ([1]; cells treated 2 hpi): 4.52 log10 | Reduction in viral titer ([1]; cells treated 6 hpi): 3.43 log10 | Reduction in viral titer [1, 5]: 1.96 log10 | Reduction in viral titer [1, 6]: 1.96 log10 | Reduction in viral titer ([1]; cells treated during infection): 3.69 log10 | Reduction in viral titer ([2]; cells treated 2 hpi): 2.81 log10 | Reduction in viral titer ([2]; cells treated 6 hpi): 2.38 log10 | Reduction in viral titer [2, 5]: 0.61 log10 | Reduction in viral titer [2, 6]: 0.54 log10 | Reduction in viral titer ([2]; cells treated during infection): 2.45 log10 | Reduction in viral titer [3, 7]: 4.62 log10 | Reduction in viral titer [3, 8]: 3.55 log10 | Reduction in viral titer [3, 9]: 5.17 log10 | Reduction in viral titer [3, 10]: 3.15 log10 | Reduction in viral titer [4, 7]: 2.85 log10 | Reduction in viral titer [4, 8]: 2.59 log10 | Reduction in viral titer [4, 9]: 2.97 log10 | Reduction in viral titer [4, 10]: 2.56 log10
